The source of these data is publication PMC2658647 (Annals of neurology, 2009).

In one data set the target is iNOS (Mus musculus, UniProt P29477). Nature of the data set: NOS inhibition, hemoglobin capture assay. The data set is classed as biochemical. The conditions noted are these: read-out: Ki iNOS; apparent Ki; recombinant enzyme; 10 µM L-arginine.
The subject of another data set is blood pressure. The settings on record: cited from earlier work.

With `N=C(NCCC[C@H](N)C(=O)O)N[N+](=O)[O-]` [L-NNA, L-N^ω-Nitroarginine], the Ki at iNOS was found to be 4.55 µM.

As to `COC(=O)[C@@H](N)CCCNC(=N)N[N+](=O)[O-]` [L-N^ω-nitroarginine methyl ester], the “effect on blood pressure” value with blood pressure is reported as “sharp increases in blood pressure”.
